For this test, the target named is T1, human CD73 (Homo sapiens, UniProt P21589).
T1 sequence (P21589 27-549): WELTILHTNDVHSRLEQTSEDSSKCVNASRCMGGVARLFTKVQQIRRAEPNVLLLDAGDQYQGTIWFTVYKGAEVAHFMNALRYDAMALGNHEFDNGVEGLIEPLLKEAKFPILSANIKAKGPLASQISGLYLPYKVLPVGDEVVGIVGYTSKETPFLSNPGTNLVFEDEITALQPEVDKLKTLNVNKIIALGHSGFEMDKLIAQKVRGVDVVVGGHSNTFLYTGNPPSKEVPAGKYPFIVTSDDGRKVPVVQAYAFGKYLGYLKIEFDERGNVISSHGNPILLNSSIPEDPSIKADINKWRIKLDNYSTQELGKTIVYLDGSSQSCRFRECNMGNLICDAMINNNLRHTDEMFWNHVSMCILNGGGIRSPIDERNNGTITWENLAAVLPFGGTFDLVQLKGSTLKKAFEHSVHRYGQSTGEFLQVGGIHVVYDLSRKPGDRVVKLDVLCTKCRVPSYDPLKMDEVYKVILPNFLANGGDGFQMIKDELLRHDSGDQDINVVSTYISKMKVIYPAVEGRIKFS
The test can be described thus: Inhibition of Ecto-5′-nucleotidase (CD73) activity in CHO-CD73 cells, phosphate release from AMP. The following applies: CHO-K1 cells stably transfected with human CD73; 25 μM AMP; 50 minutes, 37° C.; read-out: Potency: CD73 IC50. In kind it is cell-based.

In the case of `CS(=O)(=O)c1cc(C#N)ccc1Cn1nccc1-c1cc(F)c2nnn(-c3ccc4[nH]c(=O)[nH]c4c3)c2c1` [Example 260], the IC50 (commonly the concentration that gives 50% inhibition) was 100 to 1000 nM.

Regarding `N#Cc1ccc(Cn2nccc2-c2cc(C(F)(F)F)c3nnn(-c4ccc5cn[nH]c5c4)c3c2)cc1` [Example 123], the IC50 fell in the range of 100 to 1000 nM. In the case of `N#Cc1cc(F)c(Cn2nccc2-c2cc(Cl)c3nnn(-c4ccc5[nH]c(=O)[nH]c5c4)c3c2)cc1F` [Example 272], the IC50 was in the range of 100 to 1000 nM. The same measure for `COc1ccc(Cn2nccc2-c2cc(F)c3nnn(-c4ccc5[nH]c(=O)[nH]c5c4)c3c2)c(Cl)c1` [Example 246]: 100 to 1000 nM; for `N#Cc1ccc(Cn2nccc2-c2cc3c(c(N)nn3-c3ccc4cn[nH]c4c3)[n+]([O-])c2)cc1` [Example 362]: 100 to 1000 nM; for `O=c1[nH]c2ccc(-n3nnc4c(F)cc(-c5ccnn5Cc5cccc6c5OC(F)(F)O6)cc43)cc2[nH]1` [Example 229]: greater than 1000 nM. To `Clc1ccc(Cn2nccc2-c2cnc3nnn(-c4ccc5cn[nH]c5c4)c3c2)c(Cl)c1` [Example 134] belongs 100 to 1000 nM.

Consider `Nc1cc(-n2nnc3c(Cl)cc(-c4ccnn4Cc4ccc(Cl)cc4Cl)cc32)ccn1` [Example 139], for which the IC50 is 100 to 1000 nM. Consider `Fc1cc(Cl)ccc1Cn1nccc1-c1cc(F)c2nnn(-c3ccc4cn[nH]c4c3)c2c1` [Example 76], for which the IC50 is less than 100 nM. `N#Cc1ccc(Cn2nccc2-c2cc(F)c3nnn(-c4ccc5[nH]c(=O)[nH]c5c4)c3c2)c(-c2ccn[nH]2)c1` [Example 304]: the IC50 lay within 100 to 1000 nM.

For `O=c1[nH]c2ccc(-n3nnc4c(F)cc(-c5ccnn5CCc5ccccc5Cl)cc43)cc2[nH]1` [Example 221], the IC50 was greater than 1000 nM. With `Fc1cc(-c2ccnn2Cc2ccc(Cl)cn2)cc2c1nnn2-c1ccc2cn[nH]c2c1` [Example 101], the 50% inhibitory concentration (IC50) is less than 100 nM. Turning to `N#Cc1ccc(Cn2nccc2-c2cnc3nnn(-c4ccc5cn[nH]c5c4)c3c2)cc1` [Example 129], the IC50 was in the range of 100 to 1000 nM. To `N#Cc1ccc(Cn2nccc2-c2cc(F)c3nnn(-c4ccc5cn[nH]c5n4)c3c2)cc1` [Example 367] belongs less than 100 nM; to `Cc1ccc(Cn2nccc2-c2cc3c(cc2F)nnn3-c2ccc3cn[nH]c3c2)[n+]([O-])c1` [Example 397], 100 to 1000 nM.

`N#Cc1ccc(Cn2nccc2-c2cc3c(cn2)ncn3-c2ccc3cn[nH]c3c2)cc1` [Example 146]: the IC50 is greater than 1000 nM.

Regarding `N#Cc1ccc(Cn2nccc2-c2cc(Cl)c3nnn(-c4ccc5cn[nH]c5c4)c3c2)c(F)c1` [Example 112], the IC50 was less than 100 nM. For the molecule `Nc1nn(-c2ccc3[nH]c(=O)[nH]c3c2)c2cc(-c3ccnn3Cc3ccc(Cl)cn3)cnc12` [Example 295], the concentration for half-maximal inhibition (IC50) was greater than 1000 nM.

With `[O-][n+]1cc(Cl)ccc1Cn1nccc1-c1cc(Cl)c2nnn(-c3ccc4cn[nH]c4c3)c2c1` [Example 366], the half-inhibitory concentration (IC50) was less than 100 nM. `Cc1ccc(Cn2nccc2-c2cc(Cl)c3nnn(-c4ccc5[nH]c(=O)[nH]c5c4)c3c2)c(F)c1F` [Example 253]: the IC50 was 100 to 1000 nM.

As for `Cc1cccc(-n2nccc2-c2cc(Cl)c3nnn(-c4ccc5[nH]c(=O)[nH]c5c4)c3c2)c1` [Example 217], the IC50 lay within 100 to 1000 nM. The same measure for `Clc1ccc(Cn2nccc2-c2cnc3cnn(-c4ccc5cn[nH]c5c4)c3c2)nc1` [Example 164]: 100 to 1000 nM. Consider `N#Cc1ccc(Cn2ncc(Cl)c2-c2cc(F)c3nnn(-c4ccc5[nH]c(=O)[nH]c5c4)c3c2)cc1` [Example 326], for which the IC50 was 100 to 1000 nM. The same measure for `CCc1cc(C#N)ccc1Cn1nccc1-c1cc(F)c2nnn(-c3ccc4[nH]c(=O)[nH]c4c3)c2c1` [Example 309]: 100 to 1000 nM. Regarding `N#Cc1ccc(Cn2nccc2-c2cc(F)c3nnn(-c4ccc5[nH]c(=O)[nH]c5c4)c3c2)c(CN2CCCC2)c1` [Example 278], the IC50 is greater than 1000 nM. In the case of `Clc1cc(-c2ccnn2CC2CCCCO2)cc2c1nnn2-c1ccc2cn[nH]c2c1` (stereo not drawn) [Example 94], the IC50 is 100 to 1000 nM.

`O=c1[nH]c2ccc(-n3nnc4cnc(-c5ccnn5Cc5ccc(F)cn5)cc43)cc2[nH]1` [Example 189]: the half-maximal inhibitory concentration (IC50) lay within 100 to 1000 nM. For `N#Cc1ccc(Cn2nccc2-c2cc(F)c3nnn(-c4ccc5[nH]c(=O)[nH]c5c4)c3c2)c(CNC2CCCC2)c1` [Example 286], the IC50 is 100 to 1000 nM. Consider `FC1(F)CN(CCn2nccc2-c2ccc3nnn(-c4ccc5cn[nH]c5c4)c3c2)C1` [Example 121], for which the IC50 was greater than 1000 nM. The same measure for `CC(Cn1nccc1-c1cc(F)c2nnn(-c3ccc4cn[nH]c4c3)c2c1)c1ccccc1` (stereo not drawn) [Example 385]: greater than 1000 nM; for `Fc1cc(-c2ccnn2Cc2ccc(C(F)F)cc2)cc2c1nnn2-c1ccc2cn[nH]c2c1` [Example 91]: 100 to 1000 nM; for `Fc1cc(Cl)cnc1Cn1nccc1-c1cc(Cl)c2nnn(-c3ccc4cn[nH]c4c3)c2c1` [Example 104]: 100 to 1000 nM.

Turning to `Cc1ccc(F)c(-n2nccc2-c2cc3c(cn2)nnn3-c2ccc3cn[nH]c3c2)c1` [Example 409], the IC50 is greater than 1000 nM.

On to `Cc1ccc(Cn2nccc2-c2cc(Cl)c3nnn(-c4ccc5[nH]c(=O)[nH]c5c4)c3c2)c(F)c1` [Example 224], for which the IC50 was less than 100 nM. For the molecule `O=c1[nH]c2ccc(-n3nnc4c(Cl)cc(-c5ccnn5Cc5ccc(F)cn5)cc43)cc2[nH]1` [Example 200], the IC50 fell in the range of 100 to 1000 nM. As for `CC(c1ccc(C#N)cc1F)n1nccc1-c1cc(Cl)c2nnn(-c3ccc4[nH]c(=O)[nH]c4c3)c2c1` (stereo not drawn) [Example 418], the IC50 fell in the range of 100 to 1000 nM.

On to `Fc1cc(-c2ccnn2Cc2ccccc2)cc2c1nnn2-c1cnc2cn[nH]c2c1` [Example 137], for which the IC50 was greater than 1000 nM.

As for `Fc1cnc(Cn2nccc2-c2cc(Cl)c3nnn(-c4ccc5cn[nH]c5c4)c3c2)c(Cl)c1` [Example 81], the IC50 was 100 to 1000 nM. Regarding `CC(c1ccc(C#N)cc1)n1nccc1-c1cc(F)c2nnn(-c3ccc4cn[nH]c4c3)c2c1` (stereo not drawn) [Example 116], the concentration for half-maximal inhibition (IC50) was 100 to 1000 nM. The same measure for `O=c1[nH]c2ccc(-n3nnc4c(F)cc(-c5ccnn5Cc5ccc(Cl)cc5F)cc43)cc2[nH]1` [Example 191]: 100 to 1000 nM. To `O=c1[nH]c2cc(-n3nnc4c(F)cc(-c5ccnn5Cc5ccc(Cl)cn5)cc43)ccc2o1` [Example 161] belongs greater than 1000 nM; to `Cc1cccc(-n2nccc2-c2cc(F)c3nnn(-c4ccc5[nH]c(=O)[nH]c5c4)c3c2)c1` [Example 216], greater than 1000 nM. `Cn1c(-c2ccnn2Cc2ccc(C#N)cc2)cc2c(nnn2-c2ccc3cn[nH]c3c2)c1=O` [Example 356]: the IC50 lay in the range of 100 to 1000 nM.

On to `N#Cc1ccc(Cn2nccc2-c2cnc3c(N)nn(-c4cc5[nH]c(=O)[nH]c5cc4F)c3c2)c(F)c1` [Example 339], for which the IC50 is less than 100 nM.

Consider `Cc1cc(C#N)ccc1Cn1nccc1-c1cc(F)c2nnn(-c3ccc4[nH]c(=O)[nH]c4c3)c2c1` [Example 302], for which the IC50 lay within 100 to 1000 nM. To `N#Cc1ccc(Cn2nccc2-c2cc3c(cn2)c(N)nn3-c2ccc3[nH]c(=O)[nH]c3c2)cc1` [Example 314] belongs 100 to 1000 nM; to `CN(C)S(=O)(=O)Nc1nn(-c2ccc3cn[nH]c3c2)c2cc(-c3ccnn3Cc3ccc(C#N)cc3)cnc12` [Example 424], greater than 1000 nM; to `Cn1nc(-c2ccc3cn[nH]c3c2)c2cc(-c3ccnn3Cc3ccc(C#N)cc3)cnc21` [Example 341], 100 to 1000 nM.

(Values after US11931343B2 (ARCUS BIOSCIENCES, INC., priority 2018, dated 2024).)
